Laboratory results published in article PMC9186491, “Novel Small Molecule Tyrosine Kinase 2 Pseudokinase Ligands Block Cytokine-Induced TYK2-Mediated Signaling Pathways” (Frontiers in Immunology, 2022).
Like-named read-outs stand apart in the source and are kept apart here.

What was measured:
[1] = test system: IL23-induced-IL17 production in mouse splenocytes; assay: IL23-induced IL17 production in mouse splenocytes; assay type: cell-based; conditions: Splenocyte; IL23-stimulated mouse splenocytes; read-out: mIL17 IC50
Method: (§1) generated by non-linear regression analysis to determine the IC50 values of compounds using […]
(Monkey, Canine, Rat and Mouse)
(A) Suppression of IL23-induced-IL17 production in mouse splenocytes by TYK2 JH2 ligands, […]
(§2) JH2 ligands, SHR2915, 0936, 1039 and 1213, in mouse splenocytes (B), Canine PBMCs (C), Rat PBMCs (D) and Macaque PBMCs (E). Inhibition data were calculated by comparison to vehicle […]
(§3) response curves were then generated to determine the IC50 values as derived by non-linear regression analysis using GraphPad Prism. […]

[2] = test system: JAK2-dependent EPO-induced phosphorylation of STAT5 (Tyr694/699) in TF1 cells; assay: JAK cellular selectivity assay, EPO-pSTAT5 (JAK2); assay type: cell-based, human
Method: (§4) The cells were then ready for the assay after incubating for 2 hours in a humidified, 5% CO2 cell culture incubator at 37°C. […] The curve fit was generated, and statistical analysis was performed using GraphPad Prism. IC50 values were derived by non-linear regression analysis and defined as the compound concentration at which the response level was reduced to half of its maximum relative to a DMSO control.

[3] = test system: IL12-induced-IFNg production in Macaque PBMCs; assay: IL12-induced IFNγ production in macaque PBMCs; assay type: cell-based, Macaque (Cyno Monkey); conditions: Primates, PBMC, read-out: IL12-induced-IFNg, IC50, Monkey
Method: as §1
(§5) (Monkey, Canine, Rat and Mouse) […]
as §2, §3

[4] = test system: IL12-induced-IFNg production in Rat PBMCs; assay: IL12-induced IFNγ production in rat PBMCs; assay type: cell-based; conditions: PBMC
Method: as §1, §5, §2, §3

[5] = test system: JAK1/3-dependent IL2-induced phosphorylation of STAT5 (Tyr694/699) in Kit225 cells; assay: JAK cellular selectivity assay, IL2-pSTAT5 (JAK1/3); assay type: cell-based; conditions: Homo sapiens, KIT225, read-out: JAK Cellular Selectivity (IC50) IL2-pSTAT5 (JAK1/3)
Method: as §4

[6] = test system: IL12-induced-IFNg production in Canine PBMCs; assay: IL12-induced IFNγ production in canine PBMCs; assay type: cell-based; conditions: Canis lupus familiaris, PBMC
Method: as §1, §5, §2, §3

[7] = test system: IL12-induced IFNγ production in human PBMCs; assay: IL12-induced IFNγ production in human PBMCs; assay type: cell-based; conditions: PBMC, IL12 overnight, read-out: TYK2-associated IL12-induced-IFNγ Production in Human PBMCs: IC50
Method: Human PBMC samples were obtained from iQ Biosciences, CA. 1.0 × 10^6/mL PBMCs were seeded in complete RPMI at a sterilized U-shaped 96-well plate with a volume of 200 μL/well. PBMCs were treated by serially-diluted test compounds, and incubated with 40 ng/mL recombinant human IL12 (Biolegend, #573002) for overnight in a humidified, 5% CO2 cell culture incubator at 37°C. The supernatant was then collected for detection of IFNγ secretion. IFNγ level was measured by Human IFNγ AlphaLISA Kit (PerkinElmer, AL217C/F) according to the manufacturer’s instructions.

[8] = test system: JAK1-dependent IL6-induced phosphorylation of STAT3 (Tyr705) in TF1 cells; assay: JAK cellular selectivity assay, IL6-pSTAT3 (JAK1); assay type: cell-based; conditions: Homo sapiens, TF-1, read-out: JAK Cellular Selectivity (IC50) IL6-pSTAT3 (JAK1)
Method: as §4

[9] = test system: IFNα-induced CXCL10 production in human whole blood; assay: IFNα-induced CXCL10 production in human whole blood; assay type: cell-based
Method: Human whole blood [drawn with Ethylenediaminetetraacetic acid (EDTA) as anti-coagulant] was obtained from Zen-Bio Inc. (Durham, NC). […] The plasma was collected for detection of C-X-C motif chemokine 10 (CXCL10, IP10) secretion. CXCL10 was measured by Human CXCL10/IP-10 AlphaLISA Kit (PerkinElmer, #AL259 C/F) according to the manufacturer’s instructions.

[10] = test system: IL12-induced-IFNg production in mouse splenocytes; assay: IL12-induced IFNγ production in mouse splenocytes; assay type: cell-based; conditions: Splenocyte
[11] = test system: IFNα-induced TYK2/phosphoSTAT1 (Tyr701) in Kit225 T cells; assay: Kit225 T cell assay for IFNα-induced TYK2/phosphoSTAT1 activity; assay type: cell-based, human; conditions: Kit225 cells, 80 ng/mL IFNα, AlphaLISA; read-out: IC50 IFNα-induced-STAT1 Phosphorylation
Method: (§6) The cells were treated with serially diluted compounds for 1 hour and stimulated with 80 ng/mL human recombinant IFNα (R&D Systems) for 15 minutes. The treated cells were then lysed and cellular phosphorylated-STAT1 (Tyr701) levels were measured by AlphaLISA (PerkinElmer, Cat#ALSU-PST1) according to the manufacturer’s instructions.

[12] = test system: IL23-induced TYK2/phosphoSTAT3 (Tyr705) in Kit225 T cells; assay: Kit225 T cell assay for IL23-induced TYK2/phosphoSTAT3 activity; assay type: cell-based, human; conditions: Kit225 cells, 100 ng/mL IL23, AlphaLISA; read-out: IC50 IL23-induced-STAT3 Phosphorylation
Method: as §6, with “100” for “80”, “IL23” for “IFNα”, “20” for “15”, “phosphorylated-STAT3 (Tyr705)” for “phosphorylated-STAT1 (Tyr701)”, “Cat# ALSU-PST3)” for “Cat#ALSU-PST1)”

[13] = test system: moderate to severe psoriasis patients; design: method as in PMID 30205746; conditions: phase II, 267 patients; cited from earlier work

Compound | IC50 [1] | IC50 ([2]; Homo sapiens, TF-1, read-out: JAK Cellular Selectivity (IC50) EPO-pSTAT5 (JAK2)) | IC50 [3] | IC50 [4] | IC50 [5] | IC50 [6] | IC50 [7] | IC50 [8] | IC50 ([9]; Homo sapiens, 16 h, read-out: TYK2-associated IFNα-induced-CXCL10 Production in Human Whole Blood: IC50) | IC50 [10] | IC50 [11] | IC50 ([2]; TF1 cells, read-out: JAK Cellular Selectivity (IC50) EPO-pSTAT5 (JAK2)) | IC50 [12] | IC50 ([9]; Donor 1, read-out: IFNa-induced-CXCL10 Production in Human Whole Blood IC50, Donor 1) | IC50 ([9]; Donor 2, read-out: IFNa-induced-CXCL10 Production in Human Whole Blood IC50, Donor 2) | IC50 ([9]; Donor 3, read-out: IFNa-induced-CXCL10 Production in Human Whole Blood IC50, Donor 3) | IC50 ([9]; average of Donor 1-3, read-out: IFNa-induced-CXCL10 Production in Human Whole Blood IC50, Average) | Daily dose at which clinically effective [13]
CNC(=O)c1nnc(Nc2ccc(N3CCC3)cn2)cc1Nc1cccc(-c2ncn(C)n2)c1OC [SHR2915] | 11 nM | > 10000 nM | 14 nM | 3 nM | 2300 ± 970 nM | 33 nM | 45 nM | 200 ± 11 nM | 160 nM | 60 nM |  |  |  |  |  |  |  | 
Deucravacitinib |  |  |  |  |  |  |  |  |  |  | 8.5 nM | > 10000 nM | 5 nM | 110 nM | 94 nM | 83 nM | 96 nM | ≥ 3 mg
